Assay: Stability investigation of the crystalline forms (HPLC purity, samples placed open and flat)
Type: physicochemical
Procedure: The crystalline forms of the compound of formula I obtained from each example and each comparative preparation example were analyzed by HPLC.
Instrument and equipment: Agilent-1100 High Performance Liquid Chromatograph;
Chromatographic conditions and system suitability test: octadecylsilane-bonded silica gel was used as a filler; water (pH adjusted to 3.8 with phosphoric acid):acetonitrile (45:55) was used as a mobile phase; detection wavelength was 220 nm; theoretical tower plate number should not be less than 2000; the resolution should not be less than 2.0; and the resolution from other adjacent impurity peaks should meet the requirements.
Test solution: an appropriate amount of the compound obtained from each example was accurately weighed, dissolved in anhydrous ethanol, and diluted quantitatively to prepare a solution containing about 1 mg compound per 1 ml solution as the test solution.
Reference solution: 1 ml of reference solution of the compound of formula I was accurately measured, and placed into a 100 ml volumetric flask, diluted with anhydrous ethanol to the scale, and shaken well to obtain the reference solution. Reference substance: calibrated standard substance of the compound of formula I provided by Chengdu Shibeikang Biomedical Technology Co., Ltd.
Determination method: according to General Chapter 0512 High Performance Liquid Chromatography in Chinese Pharmacopoeia (2015 Edition) Volume IV, 10 μl of the test solution and 10 μl of the reference solution were accurately measured respectively, and injected into the liquid chromatograph to record chromatograms.
Samples of the crystalline form B from each Example and the crystalline form from each comparative preparation example were placed in an open and flat way to investigate 5-day stability and 10-day stability of the samples under the conditions of light (4500 Lux), heating at 40° C. and 60° C. and high humidity of 75% and 90%, respectively. The detection was carried out according to the determination method in Test 1, and HPLC purity detection results were shown in the table below.

Row | HPLC purity Day 0 (%) (heating at 40° C.) | HPLC purity Day 5 (%) (heating at 40° C.) | HPLC purity Day 10 (%) (heating at 40° C.) | HPLC purity Day 0 (%) (heating at 60° C.) | HPLC purity Day 5 (%) (heating at 60° C.) | HPLC purity Day 10 (%) (heating at 60° C.) | HPLC purity Day 0 (%) (high humidity of 90%) | HPLC purity Day 5 (%) (high humidity of 90%) | HPLC purity Day 10 (%) (high humidity of 90%) | HPLC purity Day 0 (%) (light (4500 Lux)) | HPLC purity Day 5 (%) (light (4500 Lux)) | HPLC purity Day 10 (%) (light (4500 Lux)) | SMILES
1 | 99.89% | 99.89% | 99.88% | 99.89% | 99.87% | 99.86% | 99.89% | 99.89% | 99.89% | 99.89% | 99.89% | 99.89% | COC(=O)[C@H](c1ccccc1Cl)N1CC[C@@H]2SC(=O)C=C2C1 [Example 4, methyl (S)-2-(2-chlorophenyl)-2-((S)-2-oxo-2,6,7,7a-tetrahydrothieno[3,2-c]pyridin-5(4H)-yl)acetate]
2 | 99.82% | 99.82% | 99.81% | 99.82% | 99.79% | 99.77% | 99.82% | 99.82% | 99.81% | 99.82% | 99.82% | 99.82% | COC(=O)[C@H](c1ccccc1Cl)N1CC[C@@H]2SC(=O)C=C2C1 [Example 1, methyl (S)-2-(2-chlorophenyl)-2-((S)-2-oxo-2,6,7,7a-tetrahydrothieno[3,2-c]pyridin-5(4H)-yl)acetate]
3 | 97.73% | 97.22% | 96.13% | 97.73% | 96.60% | 95.23% | 97.73% | 97.66% | 97.58% | 97.73% | 97.70% | 97.65% | COC(=O)[C@H](c1ccccc1Cl)N1CC[C@@H]2SC(=O)C=C2C1 (racemic) [Comparative preparation example 3, methyl (S)-2-(2-chlorophenyl)-2-((S)-2-oxo-2,6,7,7a-tetrahydrothieno[3,2-c]pyridin-5(4H)-yl)acetate, reference compound]
4 | 96.89% | 96.31% | 95.35% | 96.89% | 95.45% | 94.37% | 96.89% | 96.75% | 96.69% | 96.89% | 96.80% | 96.75% | COC(=O)[C@H](c1ccccc1Cl)N1CC[C@@H]2SC(=O)C=C2C1 (racemic) [Comparative preparation example 1, methyl (S)-2-(2-chlorophenyl)-2-((S)-2-oxo-2,6,7,7a-tetrahydrothieno[3,2-c]pyridin-5(4H)-yl)acetate, reference compound]
5 | 96.43% | 96.01% | 94.78% | 96.43% | 95.23% | 93.89% | 96.43% | 96.33% | 96.23% | 96.43% | 96.35% | 96.27% | COC(=O)[C@H](c1ccccc1Cl)N1CC[C@@H]2SC(=O)C=C2C1 (racemic) [Comparative preparation example 2, methyl (S)-2-(2-chlorophenyl)-2-((S)-2-oxo-2,6,7,7a-tetrahydrothieno[3,2-c]pyridin-5(4H)-yl)acetate, reference compound]
6 | 99.91% | 99.91% | 99.90% | 99.91% | 99.89% | 99.88% | 99.91% | 99.91% | 99.90% | 99.91% | 99.91% | 99.90% | COC(=O)[C@H](c1ccccc1Cl)N1CC[C@@H]2SC(=O)C=C2C1 [Example 6, methyl (S)-2-(2-chlorophenyl)-2-((S)-2-oxo-2,6,7,7a-tetrahydrothieno[3,2-c]pyridin-5(4H)-yl)acetate]
7 | 99.94% | 99.93% | 99.93% | 99.94% | 99.90% | 99.88% | 99.94% | 99.94% | 99.94% | 99.94% | 99.94% | 99.94% | COC(=O)[C@H](c1ccccc1Cl)N1CC[C@@H]2SC(=O)C=C2C1 [Example 3, methyl (S)-2-(2-chlorophenyl)-2-((S)-2-oxo-2,6,7,7a-tetrahydrothieno[3,2-c]pyridin-5(4H)-yl)acetate]
8 | 99.87% | 99.87% | 99.87% | 99.87% | 99.85% | 99.85% | 99.87% | 99.87% | 99.86% | 99.87% | 99.87% | 99.86% | COC(=O)[C@H](c1ccccc1Cl)N1CC[C@@H]2SC(=O)C=C2C1 [Example 5, methyl (S)-2-(2-chlorophenyl)-2-((S)-2-oxo-2,6,7,7a-tetrahydrothieno[3,2-c]pyridin-5(4H)-yl)acetate]
9 | 99.92% | 99.92% | 99.91% | 99.92% | 99.87% | 99.84% | 99.92% | 99.92% | 99.91% | 99.92% | 99.92% | 99.92% | COC(=O)[C@H](c1ccccc1Cl)N1CC[C@@H]2SC(=O)C=C2C1 [Example 2, methyl (S)-2-(2-chlorophenyl)-2-((S)-2-oxo-2,6,7,7a-tetrahydrothieno[3,2-c]pyridin-5(4H)-yl)acetate]
10 | 99.88% | 99.88% | 99.88% | 99.88% | 99.85% | 99.84% | 99.88% | 99.88% | 99.87% | 99.88% | 99.88% | 99.87% | COC(=O)[C@H](c1ccccc1Cl)N1CC[C@@H]2SC(=O)C=C2C1 [Example 7, methyl (S)-2-(2-chlorophenyl)-2-((S)-2-oxo-2,6,7,7a-tetrahydrothieno[3,2-c]pyridin-5(4H)-yl)acetate]
